Values after ≈ are worked out from the molar mass of the structure shown. Active and inactive are the calls of the source. The rule behind the calls is not given here.
What was measured:
Candida albicans [1] = assay: Antifungal activity against FLC-resistant Candida albicans 395 assessed as fungal growth inhibition incubated for 48 hrs by broth microdilution method; assay type: functional
Candida albicans [2] = assay: Antifungal activity against FLC-resistant Candida albicans 304103 assessed as fungal growth inhibition incubated for 48 hrs by broth microdilution method; assay type: functional
Candida albicans [3] = assay: Antifungal activity against FLC-resistant Candida albicans 17 assessed as fungal growth inhibition incubated for 48 hrs by broth microdilution method; assay type: functional
Candida albicans [4] = assay: Antifungal activity against FLC-resistant Candida albicans 538 assessed as fungal growth inhibition incubated for 48 hrs by broth microdilution method; assay type: functional
Candida albicans [5] = assay: Antifungal activity against FLC-resistant Candida albicans 8 assessed as fungal growth inhibition incubated for 48 hrs by broth microdilution method; assay type: functional
Candida albicans [6] = assay: Antifungal activity against Candida albicans SC5314 assessed as fungal growth inhibition incubated for 48 hrs in presence of Mg2+ by broth microdilution method; assay type: functional, organism-based
Candida albicans [7] = assay: Antifungal activity against FLC-resistant Candida albicans 953 assessed as fungal growth inhibition incubated for 48 hrs by broth microdilution method; assay type: functional
Candida albicans [8] = assay: Antifungal activity against Candida albicans SC5314 assessed as fungal growth inhibition incubated for 48 hrs in presence of Ca2+ by broth microdilution method; assay type: functional, organism-based
Nakaseomyces glabratus = assay: Antifungal activity against Candida glabrata 201 assessed as fungal growth inhibition incubated for 48 hrs by broth microdilution method; assay type: functional
Cryptococcus neoformans [9] = assay: Antifungal activity against Cryptococcus neoformans H99 assessed as fungal growth inhibition incubated for 48 hrs by broth microdilution method; assay type: functional
[10] = Toxicity in C57BL/6 mouse infected with Candida albicans SC5314 assessed as mean survival time at 2 mg/kg, ip (reference value: 5 day); assay type: organism-based; conditions: in vivo, 120 h
Candida albicans [11] = assay: Antifungal activity against FLC-resistant Candida albicans 540 assessed as fungal growth inhibition incubated for 48 hrs by broth microdilution method; assay type: functional
Candida albicans [12] = assay: Antifungal activity against FLC-resistant Candida albicans 710513 assessed as fungal growth inhibition incubated for 48 hrs by broth microdilution method; assay type: functional
Candida albicans [13] = assay: Antifungal activity against FLC-resistant Candida albicans 379 assessed as fungal growth inhibition incubated for 48 hrs by broth microdilution method; assay type: functional
Candida albicans [14] = assay: Antifungal activity against FLC-resistant Candida albicans 10 assessed as fungal growth inhibition incubated for 48 hrs by broth microdilution method; assay type: functional
Candida albicans [15] = assay: Antifungal activity against FLC-resistant Candida albicans 11 assessed as fungal growth inhibition incubated for 48 hrs by broth microdilution method; assay type: functional
Candida albicans [16] = assay: Antifungal activity against FLC-resistant Candida albicans 14 assessed as fungal growth inhibition incubated for 48 hrs by broth microdilution method; assay type: functional
Candida albicans [17] = assay: Inhibition of mature biofilm formation of Candida albicans SC5314 upto 16 ug/ml incubated for 24 hrs by XTT assay; assay type: functional, organism-based; conditions: dose <= 16.0 µg/ml
Candida albicans [18] = assay: Antifungal activity against FLC-resistant Candida albicans 64548 assessed as fungal growth inhibition incubated for 48 hrs by broth microdilution method; assay type: functional
Candida albicans [19] = assay: Antifungal activity against Candida albicans SC5314 infected in C57BL/6 mouse assessed as mean fungal burden at 2 mg/kg, ip measured after 46 hrs by plate count method (reference value: 6.890 log10CFU/ml); assay type: functional
Candida albicans [20] = assay: Antifungal activity against FLC-resistant Candida albicans 241 assessed as fungal growth inhibition incubated for 48 hrs by broth microdilution method; assay type: functional
[21] = Cytotoxicity against human Caco-2 cells assessed as cell growth inhibition incubated for 24 hrs by CCK8 assay; assay type: toxicity, cell-based
Candida albicans [22] = assay: Antifungal activity against FLC-resistant Candida albicans 710419 assessed as fungal growth inhibition incubated for 48 hrs by broth microdilution method; assay type: functional
Candida albicans [23] = assay: Antifungal activity against FLC-resistant Candida albicans 100 assessed as fungal growth inhibition incubated for 48 hrs by broth microdilution method; assay type: functional
Candida albicans [24] = assay: Antifungal activity against FLC-resistant Candida albicans 646 assessed as fungal growth inhibition incubated for 48 hrs by broth microdilution method; assay type: functional
Candida albicans [25] = assay: Antifungal activity against FLC-resistant Candida albicans 710554 assessed as fungal growth inhibition incubated for 48 hrs by broth microdilution method; assay type: functional
Candida albicans [26] = assay: Synergistic antifungal activity against FLC-resistant Candida albicans 249 assessed as MIC of FLC incubated for 48 hrs by broth microdilution method; assay type: functional
[27] = Cytotoxicity against HUVEC cells assessed as cell growth inhibition incubated for 24 hrs by CCK8 assay; assay type: toxicity, cell-based; conditions: human
Candida albicans [28] = assay: Synergistic antifungal activity against FLC-resistant Candida albicans 8 assessed as fractional inhibitory concentration index incubated for 48 hrs in presence of FLC by broth microdilution method; assay type: functional
Candida albicans [29] = assay: Antifungal activity against Candida albicans 21 assessed as fungal growth inhibition incubated for 48 hrs by broth microdilution method; assay type: functional
Candida albicans [30] = assay: Antifungal activity against FLC-resistant Candida albicans 512644 assessed as fungal growth inhibition incubated for 48 hrs by broth microdilution method; assay type: functional
Candida albicans [31] = assay: Antifungal activity against FLC-resistant Candida albicans 5740 assessed as fungal growth inhibition incubated for 48 hrs by broth microdilution method; assay type: functional
Candida albicans [32] = assay: Antifungal activity against Candida albicans SC5314 assessed as fungal growth inhibition incubated for 48 hrs in presence of Zn2+ by broth microdilution method; assay type: functional, organism-based
Candida albicans [33] = assay: Antifungal activity against FLC-resistant Candida albicans 710452 assessed as fungal growth inhibition incubated for 48 hrs by broth microdilution method; assay type: functional
Candida albicans [34] = assay: Antifungal activity against FLC-resistant Candida albicans 710506 assessed as fungal growth inhibition incubated for 48 hrs by broth microdilution method; assay type: functional
Candida albicans [35] = assay: Antifungal activity against FLC-resistant Candida albicans 249 assessed as fungal growth inhibition incubated for 48 hrs by broth microdilution method; assay type: functional
Candida albicans [36] = assay: Antifungal activity against FLC-resistant Candida albicans 385 assessed as fungal growth inhibition incubated for 48 hrs by broth microdilution method; assay type: functional
Candida albicans [37] = assay: Antifungal activity against FLC-resistant Candida albicans 1221 assessed as fungal growth inhibition incubated for 48 hrs by broth microdilution method; assay type: functional
[Candida] auris = Antifungal activity against Candida auris CBS 12372 assessed as fungal growth inhibition incubated for 48 hrs by broth microdilution method; assay type: functional; conditions: Candidozyma auris
Candida albicans [38] = assay: Antifungal activity against FLC-resistant Candida albicans 512681 assessed as fungal growth inhibition incubated for 48 hrs by broth microdilution method; assay type: functional
Candida albicans [39] = assay: Antifungal activity against FLC-resistant Candida albicans 605141 assessed as fungal growth inhibition incubated for 48 hrs by broth microdilution method; assay type: functional
Candida albicans [40] = assay: Synergistic antifungal activity against FLC-resistant Candida albicans 540 assessed as fractional inhibitory concentration index incubated for 48 hrs in presence of FLC by broth microdilution method; assay type: functional
Candida albicans [41] = assay: Antifungal activity against Candida albicans SC5314 assessed as fungal growth inhibition incubated for 48 hrs in presence of K+ by broth microdilution method; assay type: functional, organism-based
Cryptococcus neoformans [42] = assay: Antifungal activity against Cryptococcus neoformans 56992 assessed as fungal growth inhibition incubated for 48 hrs by broth microdilution method; assay type: functional
Candida albicans [43] = assay: Antifungal activity against FLC-resistant Candida albicans 305 assessed as fungal growth inhibition incubated for 48 hrs by broth microdilution method; assay type: functional
Candida albicans [44] = assay: Antifungal activity against FLC-resistant Candida albicans 819 assessed as fungal growth inhibition incubated for 48 hrs by broth microdilution method; assay type: functional
Candida albicans [45] = assay: Antifungal activity against FLC-resistant Candida albicans 12 assessed as fungal growth inhibition incubated for 48 hrs by broth microdilution method; assay type: functional

CCN(CC)c1ccc(C(NC(=O)C(C)C)c2ccc3cccnc3c2O)cc1 (configuration not stated)
MIC (Candida albicans [1]): 0.125 µg/mL (≈ 0.319 µM)
MIC (Candida albicans [2]): 0.25 µg/mL (≈ 0.639 µM)
MIC (Candida albicans [3]): 0.5 µg/mL (≈ 1.28 µM)
MIC (Candida albicans [4]): 0.25 µg/mL (≈ 0.639 µM)
MIC (Candida albicans [5]): 0.125 µg/mL (≈ 0.319 µM)
growth inhibition (GI) (Candida albicans [6]): Active
MIC (Candida albicans [7]): 0.5 µg/mL (≈ 1.28 µM)
growth inhibition (GI) (Candida albicans [8]): Active
MIC (Nakaseomyces glabratus): 0.032 µg/mL (≈ 0.0817 µM)
MIC (Cryptococcus neoformans [9]): 0.125 µg/mL (≈ 0.319 µM)
Survival [10]: 6.5 days
MIC (Candida albicans [11]): 0.25 µg/mL (≈ 0.639 µM)
MIC (Candida albicans [12]): 0.5 µg/mL (≈ 1.28 µM)
MIC (Candida albicans [13]): 0.25 µg/mL (≈ 0.639 µM)
MIC (Candida albicans [14]): 0.125 µg/mL (≈ 0.319 µM)
MIC (Candida albicans [15]): 0.25 µg/mL (≈ 0.639 µM)
MIC (Candida albicans [16]): 0.125 µg/mL (≈ 0.319 µM)
inhibition (Candida albicans [17]): inactive
MIC (Candida albicans [18]): 0.5 µg/mL (≈ 1.28 µM)
Activity (Candida albicans [19]): 6.283 log10CFU/g
MIC (Candida albicans [20]): 0.5 µg/mL (≈ 1.28 µM)
IC50 at 24 h [21]: 72.6 µg/mL (≈ 185 µM)
MIC (Candida albicans [22]): 0.5 µg/mL (≈ 1.28 µM)
MIC (Candida albicans [23]): 0.125 µg/mL (≈ 0.319 µM)
MIC (Candida albicans [24]): 0.125 µg/mL (≈ 0.319 µM)
MIC (Candida albicans [25]): 0.5 µg/mL (≈ 1.28 µM)
MIC (Candida albicans [26]): 0.125 µg/mL
IC50 at 24 h [27]: 67.8 µg/mL (≈ 173 µM)
fractional inhibitory concentration index (FICI) (Candida albicans [28]): 0.252
MIC (Candida albicans [29]): ≤ 0.125 µg/mL
MIC (Candida albicans [30]): 0.25 µg/mL (≈ 0.639 µM)
MIC (Candida albicans [31]): 0.063 µg/mL (≈ 0.161 µM)
growth inhibition (GI) (Candida albicans [32]): Active
MIC (Candida albicans [33]): 0.125 µg/mL (≈ 0.319 µM)
MIC (Candida albicans [34]): 1 µg/mL (≈ 2.55 µM)
MIC (Candida albicans [35]): 0.25 µg/mL (≈ 0.639 µM)
MIC (Candida albicans [36]): 0.125 µg/mL (≈ 0.319 µM)
MIC (Candida albicans [37]): 0.25 µg/mL (≈ 0.639 µM)
MIC ([Candida] auris): 0.063 µg/mL (≈ 0.161 µM)
MIC (Candida albicans [38]): 0.25 µg/mL (≈ 0.639 µM)
MIC (Candida albicans [39]): 0.5 µg/mL (≈ 1.28 µM)
fractional inhibitory concentration index (FICI) (Candida albicans [40]): 0.064
growth inhibition (GI) (Candida albicans [41]): Active
MIC (Cryptococcus neoformans [42]): 0.032 µg/mL (≈ 0.0817 µM)
MIC (Candida albicans [43]): 0.5 µg/mL (≈ 1.28 µM)
MIC (Candida albicans [44]): 0.125 µg/mL (≈ 0.319 µM)
MIC (Candida albicans [45]): 0.25 µg/mL (≈ 0.639 µM)

From ChEMBL document CHEMBL5375952, “Discovery of Novel 8-Hydroxyquinoline Derivatives with Potent In Vitro and In Vivo Antifungal Activity” (J Med Chem, 2023)
